From patent US11702418B2, “SOS1 inhibitors” (priority 2019, dated 2023) come the findings set out here.

Assay [1] addresses recombinant human SOS1 polypeptide (amino acids 560-1049) (Homo sapiens (Human), UniProt Q07889). The experiment in a line: biochemical. Format: binding. Particulars: read-out: Ki, Inhibition of Labeled Tracer Binding to SOS1.
For a further assay, the system named is pERK in MKN1 cells. The experiment in a line: cells. In kind it is cell-based. Particulars: Homo sapiens.
The mark [2] stands for this setting: HTRF displacement, Cy5 labelled tracer, Morrison equation for competitive binding.
Where [3] appears, read: MKN-1, pERK inhibition, In-Cell Western, MKN1 or H358 cells (Table 24 does not say which), 0.5-1 hour incubation, read-out: IC50.
Where [4] appears, read: MKN-1, pERK inhibition, In-Cell Western, MKN1 or H358 cells (Table 24 does not say which), 0.5-1 hour incubation.

As a reminder, the Ki is the equilibrium dissociation constant of an inhibitor or competing ligand from its target. Broadly, the IC50 is the point on the concentration scale where inhibition reaches its midpoint.

Each structure is given as a SMILES string. Where a name gives a salt, the structure may show the parent alone. Read-outs that look alike come from different tables or passages of the source.

recombinant human SOS1 polypeptide (amino acids 560-1049), sequence (Q07889 560-1049): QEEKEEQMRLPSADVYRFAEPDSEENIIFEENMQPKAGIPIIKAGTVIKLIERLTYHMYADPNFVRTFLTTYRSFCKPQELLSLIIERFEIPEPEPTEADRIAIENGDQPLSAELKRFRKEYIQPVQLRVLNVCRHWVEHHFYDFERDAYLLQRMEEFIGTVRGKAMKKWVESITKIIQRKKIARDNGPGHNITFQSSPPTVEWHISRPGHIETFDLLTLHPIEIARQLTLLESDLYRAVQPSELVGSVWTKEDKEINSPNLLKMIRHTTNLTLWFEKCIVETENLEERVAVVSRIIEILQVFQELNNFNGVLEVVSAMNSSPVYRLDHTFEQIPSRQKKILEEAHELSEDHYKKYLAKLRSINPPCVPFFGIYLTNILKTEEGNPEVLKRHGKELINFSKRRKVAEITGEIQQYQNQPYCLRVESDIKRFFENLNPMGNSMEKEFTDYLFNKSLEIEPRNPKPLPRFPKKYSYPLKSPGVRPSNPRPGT

As to `Cc1c(C#N)cccc1[C@@H](C)Nc1nnc(C)c2cnc(N3CC4(CCN(C)C4=O)C3)cc12` [Example 12-35], the Ki in assay [1] (setting [2]) was determined as 3.78 nM. For the same compound, the IC50 with pERK in MKN1 cells (setting [3]) was found to be 35 nM.

As to `Cc1nnc(N[C@H](C)c2cc(N)cc(C(F)(F)F)n2)c2cc(N3C[C@H]4C[C@@H]3CO4)ccc12` [Example 16-8, N-((R)-1-(4-amino-6-(trifluoromethyl)pyridin-2-yl)ethyl)-7-((1R, 4R)-2-oxa-5-azabicyclo[2.2.1]heptan-5-yl)-4-methylphthalazin-1-amine], the Ki in assay [1] (setting [2]) is 21.2 nM. Also, in the assay with pERK in MKN1 cells (setting [3]), the IC50 is 93 nM.

For `Cc1c([C@@H](C)Nc2nnc(C)c3cnc(N4CCS(=O)(=O)CC4)cc23)cccc1C(F)(F)F` [Example 12-13], in assay [1] (setting [2]), the Ki stood at 1.57 nM. In the assay with pERK in MKN1 cells (setting [3]), the IC50 is 39 nM.

For `Cc1c([C@@H](C)Nc2nnc(C)c3cnc(N4CC(C)(N(C)C)C4)cc23)cccc1C(F)(F)F` [Example 12-19], in assay [1] (setting [2]), the Ki stood at 1 nM. Moreover, the IC50 with pERK in MKN1 cells (setting [3]) is 59 nM.

Regarding `Cc1c(C#N)cccc1[C@@H](C)Nc1nnc(C)c2cnc(N3C[C@H]4CC[C@@H]3CN4C)cc12` [Example 12-40], the Ki in assay [1] (setting [2]) was 0.64 nM. Moreover, the IC50 in the assay on pERK in MKN1 cells (setting [3]) was determined as 24 nM.

With `Cc1c(C#N)cc(F)cc1[C@@H](C)Nc1nnc(C)c2cnc(N3C[C@H]4C[C@@H]3CO4)cc12` [Example 12-105], the Ki in assay [1] (setting [2]) is 10.9 nM. Also, the IC50 with pERK in MKN1 cells (setting [3]) was determined as 97 nM.

Take `Cc1c([C@@H](C)Nc2nnc(C)c3ccc(O[C@H]4CCOC4)cc23)cccc1C(F)(F)F` [Example 13-1, 4-methyl-N—((R)-1-(2-methyl-3-(trifluoromethyl)phenyl)ethyl)-7-(((S)-tetrahydrofuran-3-yl)oxy)phthalazin-1-amine]: in assay [1] (setting [2]), the Ki was 2.77 nM. Further, in the assay with pERK in MKN1 cells (setting [3]), the IC50 is 149 nM.

As to `Cc1c([C@@H](C)Nc2nnc(C)c3ccc(OC[C@H]4CCCN4)cc23)cccc1C(F)(F)F` [Example 7-7, 4-methyl-N-((R)-1-(2-methyl-3-(trifluoromethyl)phenyl)ethyl)-7-(((R)-pyrrolidin-2-yl)methoxy)phthalazin-1-amine hydrochloride salt], the Ki in assay [1] turned out to be 0.92 nM. Further, in the assay on pERK in MKN1 cells (MKN-1), half-maximal inhibition (IC50) required 115 nM.

Turning to `Cc1nnc(N[C@H](C)c2cccc(F)c2F)c2cc(N3CC(C)(N(C)C)C3)ncc12` [Example 12-83], the Ki in assay [1] (setting [2]) was 50.6 nM. In addition, in the assay on pERK in MKN1 cells (setting [3]), the IC50 was 749 nM.

Consider `Cc1cc(F)ccc1[C@@H](C)Nc1nnc(C)c2cnc(N3CC(C)(N(C)C)C3)cc12` [Example 12-124], for which the Ki in assay [1] (setting [2]) worked out at 64.5 nM. The half-maximal inhibitory concentration (IC50) in the assay on pERK in MKN1 cells (setting [3]) was 856 nM.

Regarding `Cc1c(C#N)cccc1[C@@H](C)Nc1nnc(C)c2cnc(N3CCC(N(C)C)CC3)cc12` [Example 12-28], in assay [1] (setting [2]), the Ki stood at 1.53 nM. Also, the IC50 in the assay on pERK in MKN1 cells (setting [3]) was 17 nM.

With `Cc1nnc(N[C@H](C)c2cccc(C(F)(F)CO)c2)c2cc(N3CCOCC3)ncc12` [Example 21-7, (R)-2,2-difluoro-2-(3-(1-((4-methyl-7-morpholinopyrido[3,4-d]pyridazin-1-yl)amino)ethyl)phenyl)ethan-1-ol], the Ki in assay [1] amounted to 0.71 nM. In the assay on pERK in MKN1 cells (setting [4]), this compound came in with an IC50 of 26 nM.

`Cc1c([C@@H](C)Nc2nnc(C)c3ccc(N4CC5(CCN(C)C5)C4)cc23)cccc1C(F)(F)F` [Example 10-41, (R)-4-methyl-N-(1-(2-methyl-3-(trifluoromethyl)phenyl)ethyl)-7-(6-methyl-2,6-diazaspiro[3.4]octan-2-yl)phthalazin-1-amine hydrochloride salt]: the Ki in assay [1] amounted to 0.52 nM. Further, in the assay on pERK in MKN1 cells (MKN-1), the IC50 worked out at 30 nM.

In the case of `Cc1cccc([C@@H](C)Nc2nnc(C)c3cnc(N4CC(C)(O)C4)cc23)c1F` [Example 12-132], the Ki in assay [1] (setting [2]) turned out to be 11 nM. The IC50 in the assay with pERK in MKN1 cells (setting [3]) turned out to be 76 nM.

Take `Cc1c([C@@H](C)Nc2nnc(C)c3cc(F)c(N4CCNCC4)cc23)cccc1C(F)(F)F` [Example 18-1, (R)-6-fluoro-4-methyl-N-(1-(2-methyl-3-(trifluoromethyl)phenyl)ethyl)-7-(piperazin-1-yl)phthalazin-1-amine]: the Ki in assay [1] was found to be 0.98 nM. In the assay on pERK in MKN1 cells (setting [4]), this compound gave an IC50 of 128 nM.

As for `COC1(C)CN(c2cc3c(N[C@H](C)c4cccc(C(F)(F)F)c4C)nnc(C)c3cn2)C1` [Example 12-37], the Ki in assay [1] (setting [2]) amounted to 0.85 nM. Moreover, the IC50 with pERK in MKN1 cells (setting [3]) was 32 nM.

Regarding `Cc1c([C@@H](C)Nc2nnc(C)c3ccc(N4CCNCC(F)(F)C4)cc23)cccc1C(F)(F)F` [Example 10-5, (R)-7-(6,6-difluoro-1,4-diazepan-1-yl)-4-methyl-N-(1-(2-methyl-3-(trifluoromethyl)phenyl)ethyl)phthalazin-1-amine], the Ki in assay [1] (setting [2]) was < 0.01 nM. In addition, in the assay with pERK in MKN1 cells (setting [3]), the IC50 was found to be 108 nM.

As to `Cc1c(C#N)cccc1[C@@H](C)Nc1nnc(C)c2ccc(N3CCN(c4cnn(C)c4)CC3)cc12` [Example 10-70, (R)-2-methyl-3-(1-((4-methyl-7-(4-(1-methyl-1H-pyrazol-4-yl)piperazin-1-yl)phthalazin-1-yl)amino)ethyl)benzonitrile], in assay [1] (setting [2]), the Ki was determined as 0.89 nM. For the same compound, in the assay on pERK in MKN1 cells (setting [3]), the IC50 was 15 nM.

In the case of `Cc1c([C@@H](C)Nc2nncc3ccc(N4CCC5C4CCCN5C)cc23)cccc1C(F)(F)F` (stereo partly drawn) [Example 1-38, N-((R)-1-(2-methyl-3-(trifluoromethyl)phenyl)ethyl)-7-(4-methyloctahydro-1H-pyrrolo[3,2-b]pyridin-1-yl)phthalazin-1-amine], the Ki in assay [1] (setting [2]) was 0.5 nM. For the same compound, in the assay with pERK in MKN1 cells (setting [3]), the IC50 was 136 nM.

Take `Cc1c(C#N)cccc1[C@@H](C)Nc1nnc(C)c2cnc(N3CCN(C)CC3)cc12` [Example 12-44]: in assay [1] (setting [2]), the Ki was 1.16 nM. In the assay with pERK in MKN1 cells (setting [3]), the IC50 is 38 nM.

As to `Cc1nnc(N[C@H](C)c2cccc(C(F)(F)F)c2F)c2cc(N3CC(N(C)C)C3)ccc12` [Example 10-76, (R)-7-(3-(dimethylamino)azetidin-1-yl)-N-(1-(2-fluoro-3-(trifluoromethyl)phenyl)ethyl)-4-methylphthalazin-1-amine], in assay [1] (setting [2]), the Ki was found to be 3.44 nM. The IC50 in the assay on pERK in MKN1 cells (setting [3]) is 85 nM.

For the compound `Cc1nnc(N[C@H](C)c2cccc(C(F)F)c2F)c2cc(N3CCN4CCOC[C@@H]4C3)ccc12` [Example 10-86, N-((R)-1-(3-(difluoromethyl)-2-fluorophenyl)ethyl)-7-((S)-hexahydropyrazino[2,1-c][1,4]oxazin-8(1H)-yl)-4-methylphthalazin-1-amine Formate salt], in assay [1], the Ki is 1.51 nM. This compound also had an IC50 with pERK in MKN1 cells (MKN-1) of 21 nM.

Turning to `Cc1nnc(N[C@H](C)c2cccc(C(F)(F)F)c2F)c2cc(N3CCOCC3)ccc12` [Example 10-77, (R)-N-(1-(2-fluoro-3-(trifluoromethyl)phenyl)ethyl)-4-methyl-7-morpholinophthalazin-1-amine], the Ki in assay [1] (setting [2]) amounted to 0.75 nM. Further, in the assay on pERK in MKN1 cells (setting [3]), the IC50 was found to be 102 nM.

Turning to `Cc1c([C@@H](C)Nc2nnc(C)c3ccc(N4CCNS(=O)(=O)CC4)cc23)cccc1C(F)(F)F` [Example 10-64, (R)-5-(1-methyl-4-((1-(2-methyl-3-(trifluoromethyl)phenyl)ethyl)amino)phthalazin-6-yl)-1,2,5-thiadiazepane 1,1-dioxide], the Ki in assay [1] (setting [2]) worked out at 1.7 nM. Further, the IC50 in the assay on pERK in MKN1 cells (setting [3]) amounted to 513 nM.

Regarding `Cc1nnc(N[C@H](C)c2cccc(F)c2Cl)c2cc(N3CC(C)(N(C)C)C3)ncc12` [Example 12-85], in assay [1] (setting [2]), the Ki stood at 27.6 nM. The IC50 in the assay with pERK in MKN1 cells (setting [3]) worked out at 602 nM.

Consider `Cc1nnc(N[C@H](C)c2ccc(F)cc2F)c2cc(N3CC(C)(N(C)C)C3)ncc12` [Example 12-49], for which the Ki in assay [1] (setting [2]) came to 39.7 nM. For the same compound, in the assay with pERK in MKN1 cells (setting [3]), the concentration for half-maximal inhibition (IC50) stood at 161 nM.
